The values that follow come from patent publication US10590120B2, “Pesticidal compositions and methods” (Dow AgroSciences LLC, priority 2016, dated 2020).

Assay type in all cases: in vivo
For assay [1], the system named is Cabbage Looper (Trichloplusia ni, TRIPNI) ("CL"). The experiment in a line: Insecticidal test for cabbage looper, 128-well diet tray assay. As to conditions: Trichoplusia ni, 168 h; second instar larvae, 50 μg/cm^2 on artificial diet, 25° C., five to seven days, percent mortality averaged over eight wells. The procedure: Insecticidal Test for Cabbage Looper (Trichloplusia ni, TRIPNI) (“CL”)
(§1) Bioassays on cabbage looper (CL; Trichloplusia ni: Lepidoptera) are conducted using a 128-well diet tray assay. One to five second instar CL larvae are placed in each well (3 mL) of the diet tray that had been previously filled with 1 mL of artificial diet to which 50 μg/cm^2 of the test compound (dissolved in 50 μL of 90:10 acetone-water mixture) had been applied (to each of eight wells) and then allowed to dry. Trays are covered with a clear self-adhesive cover, vented to allow gas exchange, and held at 25° C., 14:10 light-dark for five to seven days. Percent mortality is recorded for the larvae in each well; activity in the eight wells is then averaged.

For assay [2], the system named is Beet Armyworm (Spodoptera exigua, LAPHEG) ("BAW"). The experiment in a line: Insecticidal test for beet armyworm, 128-well diet tray assay. As to conditions: 168 h, second instar larvae, 50 μg/cm^2 on artificial diet, 25° C., five to seven days, percent mortality averaged over eight wells. The protocol:
Insecticidal Test for Beet Armyworm (Spodoptera exigua, LAPHEG) (“BAW”)
as §1, with “beet armyworm (BAW; Spodoptera exigua:” for “cabbage looper (CL; Trichloplusia ni:”, “BAW” for “CL”

Assay [3] deals with Yellow Fever Mosquito (Aedes aegypti, AEDSAE) ("YFM"). The experiment in a line: Insecticidal test for yellow fever mosquito, 96-well plate larval assay. As to conditions: about 1 day-old larvae, 4000 ppm master solution diluted, room temperature, scored for mortality after 3 days. The protocol: Insecticidal Test for Yellow Fever Mosquito (Aedes aegypti, AEDSAE) (“YFM”)
Master plates containing 400 μg of a molecule dissolved in 100 μL of dimethyl sulfoxide (DMSO) (equivalent to a 4000 ppm solution) are used. A master plate of assembled molecules contains 15 μL per well. To this plate, 135 μL of a 90:10 water/acetone mixture is added to each well. A robot (Biomek® NXP Laboratory Automation Workstation) is programmed to dispense 15 μL aspirations from the master plate into an empty 96-well shallow plate (“daughter” plate). There are 6 reps (“daughter” plates) created per master. The created “daughter” plates are then immediately infested with YFM larvae.
The day before plates are to be treated, mosquito eggs are placed in Millipore water containing liver powder to begin hatching (4 g. into 400 mL). After the “daughter” plates are created using the robot, they are infested with 220 μL of the liver powder/larval mosquito mixture (about 1 day-old larvae). After plates are infested with mosquito larvae, a non-evaporative lid is used to cover the plate to reduce drying. Plates are held at room temperature for 3 days prior to grading. After 3 days, each well is observed and scored based on mortality.

Turning to `Cc1ccc(C(C)C)c(N2C(=O)CS/C2=N\C(=O)N/N=C/c2ccc(-c3ncn(-c4ccc(OC(F)(F)F)cc4)n3)cc2)c1` [Compound A1, N—((Z)-3-(2-isopropyl-5-methylphenyl)-4-oxothiazolidin-2-ylidene)-2-((E)-4-(1-(4-(trifluoromethoxy)phenyl)-1H-1,2,4-triazol-3-yl)benzylidene)hydrazine-1-carboxamide], the pest or weed control at 50 µg/cm2 in assay [1] and in assay [2] was 50 to 100% throughout.

`CC(C)c1ccccc1N1C(=O)CS/C1=N\C(=O)N/N=C/c1ccc(-c2ncn(-c3ccc(OC(F)(F)F)cc3)n2)cc1` [Compound A2, N—((Z)-3-(2-Isopropylphenyl)-4-oxothiazolidin-2-ylidene)-2-((E)-4-(1-(4-(trifluoromethoxy)phenyl)-1H-1,2,4-triazol-3-yl)benzylidene)hydrazine-1-carboxamide]: the pest or weed control at 50 µg/cm2 in assay [1] and in assay [2] was 50 to 100% each time. Moreover, the “YFM % Control” value in assay [3] is listed as “A (80-100)”.

Turning to `CCc1cccc(C)c1N1C(=O)CS/C1=N\C(=O)N/N=C/c1ccc(-c2ncn(-c3ccc(OC(F)(F)F)cc3)n2)cc1` [Compound A3, N—((Z)-3-(2-Ethyl-6-methylphenyl)-4-oxothiazolidin-2-ylidene)-2-((E)-4-(1-(4-(trifluoromethoxy)phenyl)-1H-1,2,4-triazol-3-yl)benzylidene)hydrazine-1-carboxamide], the pest or weed control at 50 µg/cm2 in assay [1] and in assay [2] was 50 to 100% in each case.

Consider `Cc1ccc(Cl)c(N2C(=O)CS/C2=N\C(=O)N/N=C/c2ccc(-c3ncn(-c4ccc(OC(F)(F)F)cc4)n3)cc2)c1` [Compound A4, N—((Z)-3-(2-Chloro-5-methylphenyl)-4-oxothiazolidin-2-ylidene)-2-((E)-4-(1-(4-(trifluoromethoxy)phenyl)-1H-1,2,4-triazol-3-yl)benzylidene)hydrazine-1-carboxamide], for which the pest or weed control at 50 µg/cm2 in assay [1] and in assay [2] was 50 to 100% each time. The “YFM % Control” value in assay [3] is reported as “A (80-100)”.

In the case of `CCOc1ccc(C)cc1N1C(=O)CS/C1=N\C(=O)N/N=C/c1ccc(-c2ncn(-c3ccc(OC(F)(F)F)cc3)n2)cc1` [Compound A5, N—((Z)-3-(2-Ethoxy-5-methylphenyl)-4-oxothiazolidin-2-ylidene)-2-((E)-4-(1-(4-(trifluoromethoxy)phenyl)-1H-1,2,4-triazol-3-yl)benzylidene)hydrazine-1-carboxamide], the pest or weed control at 50 µg/cm2 in assay [1] and in assay [2] was 50 to 100% each time.

On to `Cc1ccc(OCC(F)(F)F)c(N2C(=O)CS/C2=N\C(=O)N/N=C/c2ccc(-c3ncn(-c4ccc(OC(F)(F)F)cc4)n3)cc2)c1` [Compound A6, N—((Z)-3-(5-Methyl-2-(2,2,2-trifluoroethoxy)phenyl)-4-oxothiazolidin-2-ylidene)-2-((E)-4-(1-(4-(trifluoromethoxy)phenyl)-1H-1,2,4-triazol-3-yl)benzylidene)hydrazine-1-carboxamide], for which the pest or weed control at 50 µg/cm2 in assay [1] and in assay [2] was 50 to 100% in each case.

Turning to `COc1ccc(N2C(=O)CS/C2=N\C(=O)N/N=C/c2ccc(-c3ncn(-c4ccc(OC(F)(F)F)cc4)n3)cc2)c(C)c1` [Compound A7, N—((Z)-3-(4-Methoxy-2-methylphenyl)-4-oxothiazolidin-2-ylidene)-2-((E)-4-(1-(4-(trifluoromethoxy)phenyl)-1H-1,2,4-triazol-3-yl)benzylidene)hydrazine-1-carboxamide], the pest or weed control at 50 µg/cm2 in assay [1] and in assay [2] was 50 to 100% in each case. In addition, the “YFM % Control” value in assay [3] was “A (80-100)”.

`CCOc1ccccc1N1C(=O)CS/C1=N\C(=O)N/N=C/c1ccc(-c2ncn(-c3ccc(OC(F)(F)F)cc3)n2)cc1` [Compound A8, N—((Z)-3-(2-Ethoxyphenyl)-4-oxothiazolidin-2-ylidene)-2-((E)-4-(1-(4-(trifluoromethoxy)phenyl)-1H-1,2,4-triazol-3-yl)benzylidene)hydrazine-1-carboxamide]: the pest or weed control at 50 µg/cm2 in assay [1] and in assay [2] was 50 to 100% in each case.

With `Cc1ccc(C(F)(F)F)c(N2C(=O)CS/C2=N\C(=O)N/N=C/c2ccc(-c3ncn(-c4ccc(OC(F)(F)F)cc4)n3)cc2)c1` [Compound A9, N—((Z)-3-(5-methyl-2-(trifluoromethyl)phenyl)-4-oxothiazolidin-2-ylidene)-2-((E)-4-(1-(4-(trifluoromethoxy)phenyl)-1H-1,2,4-triazol-3-yl)benzylidene)hydrazine-1-carboxamide], the pest or weed control at 50 µg/cm2 in assay [1] and in assay [2] was 50 to 100% each time.

As usually defined, the pest or weed control is the degree to which the test organism was suppressed or injured, in per cent.
